Legend:
[1] = compared with levetiracetam, literature statement; cited from earlier work

| Compound | melting point | activity in the treatment of epilepsy [1] |
| --- | --- | --- |
| C[C@H](C(N)=O)N1C(=O)Cc2cc(Cl)ccc21 (single isomer, unassigned) [Compound 33] | 171 to 172 °C | – |
| C[C@@H](C(N)=O)N1C(=O)Cc2cc(Cl)ccc21 (single isomer, unassigned) [Compound 34] | 171 to 172 °C | – |
| CC[C@H](C(N)=O)N1CCCC1=O [(R)-α-ethyl-2-oxo-1-pyrrolidine acetamide] | – | completely lacks activity |

— US7964593B2, “Indolone-acetamide derivatives, processes for preparing them and their uses” (UCB Pharma, S.A., priority 2003, dated 2011)
